# Reference: patent US20220033434A1, “ANDROGEN RECEPTOR NUCLEIC ACIDS AND USES THEREOF” (Avidity Biosciences, Inc., priority 2016, published 2022)
# In the oligonucleotide strings, read from the 5' end, every base follows the letter of its sugar. An asterisk marks phosphorothioate; unmarked linkages are phosphodiester. Other units and linkages are bracketed, terminal groups are in braces. A string of capitals states the bases alone. d = 2'-deoxy (DNA); m = 2'-O-methyl; f = 2'-fluoro
# Key:
# Format in all cases: cell-based, human
# [1] = tested on: AR target gene expression (PSA, PSMA); assay: AR, PSA and PSMA levels by qRT-PCR in hormone therapy resistant 22RV1 cells, siRNA versus Enzalutamide; conditions: 5 nM siRNA (24 h + 20 h DMSO) or 10 μM Enzalutamide 20 hours
# Source text: (§1) To monitor regulation of AR target genes as a consequence of siRNA-mediated changes in AR […], LNCaP cells were transfected with various concentrations of XD-01829 (also referred to as XD-0189), and the levels of AR and the Prostate Specific Antigen (PSA) monitored by qRT-PCR. PSA expression is positively regulated by AR and used clinically as a biomarker for AR activity in prostate cancer patients. […] A similar experiment compared the expression of AR, PSA and the Prostate-Specific Membrane Antigen (PSMA) in response to treatment with the AR antagonist Enzalutamide or AR siRNA XD-01829 (or XD-0189). PSMA expression is negatively regulated by AR. For these experiments, hormone therapy resistant 22RV1 cells were transfected with 5 nM of either a scrambled control siRNA (negative control, Enzalutamide group) or XD-01829 (or XD-0189) as described above. After incubation for 24 hours, the negative control and XD-01829 (or XD-0189) groups were treated with DMSO, and the enzalutamide group with 10 μM Enzalutamide. After incubation for 20 hours RNAs were prepared as outlined above and AR, PSA, and PSMA levels evaluated by qRT-PCR.
# [2] = tested on: AR FL(1); assay: AR protein knock-down by Western blot after siRNA transfection in 22RV1 cells: AR FL(1); conditions: 5 nM siRNA, 50 h post transfection, compared to controls
# Outline: (§2)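 Western read-out: AR detected with an antibody to an N-terminal region shared by full-length AR and splice variants, normalised against α-tubulin, fluorescent secondaries. Cells received 5 nM siRNA (final) by lipid transfection; harvest at 50 h for 22RV1, 72 h for LNCaP.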
# [3] = tested on: AR mRNA; assay: AR mRNA downregulation by RT-qPCR at 5 nM siRNA in LNCaP cells; conditions: 24 hrs post-transfection
# Description: (§3) Focusing on siRNAs targeting AR sequences exons 1 and 2, the ability of these siRNAs to downregulate AR mRNA at a concentration of 5 nM was determined by RT-qPCR. For this purpose, siRNAs were transfected into 22RV1 and LNCaP cells as described above. At 24 hrs post-transfection, RNA was harvested from cells using a Qiagen RNeasy® Plus Mini Kit or Stratec InviTrap® RNA Cell HTS96 kit. The concentration of each isolated RNA was determined via A260 measurement using a NanoDrop spectrophotometer. RNA samples were reverse transcribed to cDNA using the High Capacity RNA to cDNA Kit (Life Technologies) according to the manufacturer's instructions. cDNA samples were then quantified by qPCR using AR-specific probes and results normalized to either endogenous β-actin or PPIB using the standard 2^−ΔΔCt method. These studies identified 6 siRNAs that at a concentration of 5 nM down regulated AR mRNA in 22RV1 and LNCaP cells by more than 80% compared to controls (Table 4).
# [4] = tested on: AR-SV(2); assay: AR protein knock-down by Western blot after siRNA transfection in 22RV1 cells: AR-SV(2); conditions: 5 nM siRNA, 50 h post transfection, compared to controls
# Outline: as §2
# [5] = tested on: AR mRNA; assay: AR mRNA IC50 and maximal KD, siRNA at various concentrations, 22RV1 cells, qPCR probes exon junctions 1/2 or 4/5
# Description: as §3
# (§4) To determine the concentration required to reduce AR expression by 50% (IC50) and maximal KD activity, these siRNAs were transfected into LNCaP, C4-2, and 22RV1 cells at various concentrations starting at 100 nM. C4-2 (MD Anderson) is an LNCaP subline that has been selected for resistance against clinically used AR antagonists (Wu et al., “Derivation of androgen-independent human LNCaP prostatic cancer cell sublines: Role of bone stromal cells,” International J Cancer 1994; 57:406-412). Cells were harvested 48 h post-transfection; RNA was prepared and analyzed as stated above. For these experiments, specific AR qPCR probes located at the exon junctions 1/2 or 4/5 were used that recognize most mRNAs of relevant AR isoforms or primarily full length AR mRNA, respectively. All tested siRNAs lowered AR expression with subnanomolar potency to 70% in 22RV1 cells and to ≥90% in LNCaP and C4-2 cells (Table 5). […]
# [6] = tested on: AR mRNA; assay: AR mRNA downregulation by RT-qPCR at 5 nM siRNA in 22RV1 cells; conditions: 24 hrs post-transfection
# Description: as §3
# [7] = tested on: AR mRNA; assay: AR mRNA IC50 and maximal KD, siRNA at various concentrations, C4-2 cells, qPCR probes exon junctions 1/2 or 4/5
# Description: as §3, §4
# [8] = tested on: AR FL (full length AR T877A LBD mutant); assay: AR protein knock-down by Western blot after siRNA transfection in LNCaP cells: AR FL; conditions: 5 nM siRNA, 72 h post transfection, compared to controls
# Outline: as §2
# [9] = tested on: AR mRNA; assay: AR mRNA IC50 and maximal KD, siRNA at various concentrations, LNCaP cells, qPCR probes exon junctions 1/2 or 4/5
# Description: as §3, §4
# [10] = tested on: Prostate Specific Antigen (PSA); assay: AR and PSA levels by qRT-PCR after siRNA transfection in LNCaP cells; conditions: various concentrations, 3 days after transfection
# Source text: as §1
# [11] = tested on: AR-SV(3); assay: AR protein knock-down by Western blot after siRNA transfection in 22RV1 cells: AR-SV(3); conditions: 5 nM siRNA, 50 h post transfection, compared to controls
# Outline: as §2
# [12] = AR qPCR probe at exon junction 1/2, 48 h post-transfection
# [13] = AR qPCR probe at exon junction 1/2, 48 h post-transfection, read-out: IC50 (nM), 22RV1, Exon 1/2
# [14] = AR qPCR probe at exon junction 4/5, 48 h post-transfection
# [15] = AR qPCR probe at exon junction 4/5, 48 h post-transfection, read-out: IC50 (nM), 22RV1, Exon 4/5
# [16] = AR qPCR probe at exon junction 1/2, 48 h post-transfection, read-out: IC50 (nM), C4-2, Exon 1/2
# [17] = AR qPCR probe at exon junction 4/5, 48 h post-transfection, read-out: IC50 (nM), C4-2, Exon 4/5
# [18] = AR qPCR probe at exon junction 1/2, 48 h post-transfection, read-out: IC50 (nM), LNCaP, Exon 1/2
# [19] = AR qPCR probe at exon junction 4/5, 48 h post-transfection, read-out: IC50 (nM), LNCaP, Exon 4/5
Substance,"regulation of AR target gene expression (PSA, PSMA) [1]",% KD AR Protein 22RV1 AR FL(1) [2],% KD AR RNA LNCaP [3],% KD AR Protein 22RV1 AR-SV(2) [4],"max KD (%), 22RV1, Exon 1/2 [5, 12]","IC50 [5, 13]","max KD (%), 22RV1, Exon 4/5 [5, 14]","IC50 [5, 15]",% KD AR RNA 22RV1 [6],"max KD (%), C4-2, Exon 1/2 [7, 12]","IC50 [7, 16]","max KD (%), C4-2, Exon 4/5 [7, 14]","IC50 [7, 17]",% KD AR Protein LNCaP AR FL [8],"max KD (%), LNCaP, Exon 1/2 [9, 12]","IC50 [9, 18]","max KD (%), LNCaP, Exon 4/5 [9, 14]","IC50 [9, 19]",AR and PSA levels [10],% KD AR Protein 22RV1 AR-SV(3) [11]
"XD-01829: AR siRNA with chemical modification, Id # 2822; sense X05353 (SEQ ID NO: 183), antisense X05354 (SEQ ID NO: 184) (sense mGmUfGmUfCmAfCmUfAmUfGmGfAmGfCmUfCmUfCdT*dT; antisense fGfAmGfAmGfCmUfCmCfAmUfAmGfUmGfAmCfAmCdT*dT)",regulate AR target gene expression,97%,92%,99%,72.1%,0.038 nM,68.1%,0.018 nM,86%,94.7%,0.013 nM,92.6%,0.011 nM,91%,94.2%,0.016 nM,92.3%,0.016 nM,highly correlated,97%
"XD-01817: AR siRNA with chemical modification, Id # 1987; sense X05329 (SEQ ID NO: 159), antisense X05330 (SEQ ID NO: 160) (sense mAmAfGmGfUmUfCmUfCmUfGmCfUmAfGmAfCmGfAdT*dT; antisense fUfCmGfUmCfUmAfGmCfAmGfAmGfAmAfCmCfUmUdT*dT)",,83%,87%,91%,49.3%,0.059 nM,61.1%,0.043 nM,83%,83.6%,0.021 nM,84.1%,0.023 nM,99%,83.4%,0.018 nM,87.2%,0.017 nM,,86%
